Experiment [1] addresses T1, human stromelysin (MMP-3) (Homo sapiens, UniProt P08254).
T1 construct: catalytic domains of human stromelysin and of neutrophil collagenase; made in house
In words: inhibition of the catalytic domain of human stromelysin (MMP-3), fluorogenic substrate. It is filed as biochemical. As to the method: (§1) Preparation and determination of the enzymatic activity of the catalytic domains of human stromelysin and of neutrophil collagenase.
(§2) The two enzymes--stromelysin (MMP-3) and neutrophil collagenase (MMP-8)--were prepared according to Ye et al., Biochemistry, vol. […] To measure the enzyme activity or the enzyme inhibitor action, 70 μl of buffer solution and 10 μl of enzyme solution are incubated for 15 minutes with 10 μl of a 10% strength (v/v) aqueous dimethyl sulfoxide solution, which optionally contains the enzyme inhibitor.
(§3) The buffer solution contains 0.05% Brij (Sigma, Deisenhofen, Germany) and also 0.1 mol/l tris/HCl, 0.1 mol/l NaCl, 0.01 mol/l CaCl2 and 0.1 mol/l piperazine-N,N'-bis[2-ethanesulfonic acid] (pH=6.5). The enzyme solution contains 5 μg/ml of one of the enzyme domains prepared according to Ye et al. The substrate solution contains 1 mmol/l of the fluorogen ic substrate (7-methoxycoumarin4-yl)acetyl-Pro-Leu-Gly-Leu-3-(2',4'-dinitrophenyl)-L-2,3-diaminopropionyl-Ala-Arg-NH2 (Bachem, Heidelberg, Germany).
(§4) The enzyme activity is shown as the extinction increase/minute.

Experiment [2] relates to neutrophil collagenase (MMP-8). Kind of experiment: inhibition of the catalytic domain of neutrophil collagenase (MMP-8), fluorogenic substrate. It is filed as biochemical, human. The following applies: fluorescence 328 nm (ex)/393 nm (em), pH=6.5, 15 min preincubation. The method, then: as §1, §2, §3, §4

As usually defined, the IC50 is the concentration needed to halve the response being measured. Higher therefore signals weaker potency in that assay.

T1 sequence (P08254 100-273 limits assumed): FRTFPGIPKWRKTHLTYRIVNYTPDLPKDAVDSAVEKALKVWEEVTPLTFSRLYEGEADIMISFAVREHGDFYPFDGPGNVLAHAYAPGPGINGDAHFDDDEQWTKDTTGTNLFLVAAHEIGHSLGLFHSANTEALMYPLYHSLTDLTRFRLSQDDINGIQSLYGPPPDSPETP

As for `Nc1ccc2c(c1)C[C@H](C(=O)O)N(S(=O)(=O)c1ccc(-c3ccc(F)cc3)cc1)C2` [Example 21], the half-inhibitory concentration (IC50) is 200 nM in experiment [1] and 8 nM in experiment [2].
As to `COc1ccc(S(=O)(=O)N2Cc3cc(NC(=O)OC(C)(C)C)ccc3C[C@@H]2C(=O)NO)cc1` [Example 11], the figures for the 50% inhibitory concentration (IC50) in experiment [1] and in experiment [2] were 20 nM and 3 nM, respectively.
`Nc1ccc2c(c1)CN(S(=O)(=O)c1ccc(-c3ccc(F)cc3)cc1)[C@@H](C(=O)O)C2` [Example 22]: the half-maximal inhibitory concentration (IC50) in experiment [1] was determined as 300 nM; in experiment [2], 8 nM.
Take `O=C(O)[C@H]1Cc2ccc([N+](=O)[O-])cc2CN1S(=O)(=O)c1ccc(-c2ccc(Cl)cc2)cc1` [Example 15]: the IC50 in experiment [2] worked out at 30 nM.
With `CC(C)(C)OC(=O)Nc1ccc2c(c1)CN(S(=O)(=O)c1ccc(-c3ccc(F)cc3)cc1)[C@@H](C(=O)NO)C2` [Example 27], the 50% inhibitory concentration (IC50) in experiment [1] worked out at 100 nM; in experiment [2] it was 10 nM.
Turning to `COc1ccc(S(=O)(=O)N2Cc3cc(NC(=O)CCC(=O)O)ccc3C[C@@H]2C(=O)NO)cc1` [Example 31], the results for the IC50 in experiment [1] and in experiment [2] were 20 nM and 4 nM, respectively.
For the compound `CC(C)(C)OC(=O)Nc1ccc2c(c1)CN(S(=O)(=O)c1ccc(-c3ccc(F)cc3)cc1)[C@@H](C(=O)O)C2` [Example 20], the IC50 in experiment [1] was 2000 nM; in experiment [2], 100 nM.
On to `COc1ccc(S(=O)(=O)N2Cc3cc(NC(=O)[C@H](C)N)ccc3C[C@@H]2C(=O)NO)cc1` [Example 30], for which the IC50 in experiment [1] amounted to 30 nM.
Regarding `Nc1ccc2c(c1)CN(S(=O)(=O)c1ccc(-c3ccc(F)cc3)cc1)[C@@H](C(=O)NO)C2` [Example 28], the IC50 in experiment [1] came to 20 nM; in experiment [2], 2 nM.
`O=C(O)[C@H]1Cc2cc([N+](=O)[O-])ccc2CN1S(=O)(=O)c1ccc(-c2ccc(F)cc2)cc1` [Example 18] showed a concentration for half-maximal inhibition (IC50) in experiment [2] of 20 nM.
Regarding `CC(N)C(=O)Nc1ccc2c(c1)CN(S(=O)(=O)c1ccc(-c3ccc(Cl)cc3)cc1)[C@@H](C(=O)O)C2` (some centres unmarked) [Example 25], the results for the IC50 in experiment [1] and in experiment [2] were 200 nM and 10 nM, respectively.
For the compound `COc1ccc(S(=O)(=O)N2Cc3cc(N)ccc3C[C@@H]2C(=O)NO)cc1` [Example 10, 2-(4-Methoxybenzenesulfonyl)-7-amino-1,2,3,4-tetrahydroisoquinoline-(R)-3-(N-hydroxy)carboxamide], in experiment [1], the half-maximal inhibitory concentration (IC50) is 10 nM.
Consider `COc1ccc(S(=O)(=O)N2Cc3cc(NC(=O)[C@H](CC(=O)OC(C)(C)C)NC(=O)OCc4ccccc4)ccc3C[C@@H]2C(=O)NO)cc1` [Example 32], for which the IC50 in experiment [1] was determined as 400 nM; in experiment [2], 10 nM.
As to `O=C(O)[C@H]1Cc2cc([N+](=O)[O-])ccc2CN1S(=O)(=O)c1ccc(-c2ccc(Cl)cc2)cc1` [Example 16], inhibition in experiment [2] was half-maximal at 20 nM (IC50).
In the case of `O=C(O)[C@H]1Cc2ccc([N+](=O)[O-])cc2CN1S(=O)(=O)c1ccc(-c2ccc(F)cc2)cc1` [Example 17], inhibition in experiment [2] was half-maximal at 40 nM (IC50).
Turning to `C[C@H](NC(=O)OCc1ccccc1)C(=O)Nc1ccc2c(c1)CN(S(=O)(=O)c1ccc(-c3ccc(Cl)cc3)cc1)[C@@H](C(=O)O)C2` [Example 24], the IC50 came to 300 nM in experiment [1] and 60 nM in experiment [2].

The values are drawn from patent US5962471A, “Substituted 6- and 7-aminotetrahydroisoquinolinecarboxylic acids” (Hoechst Aktiengesellschaft, priority 1997, dated 1999).
